Test results taken from patent publication US7094429B2, “Process for preparing tannate liquid and semi-solid dosage forms” (Kiel Laboratories, Inc., priority 2001, dated 2006).

How the values were obtained:
[1] = Conversion process: active dissolved in supernatant of centrifuged MAS/tannic acid conversion samples; settings: for Assay (% Dissolved) 10 mins / Assay (% Dissolved) 20 mins / Assay (% Dissolved) 30 mins: in-situ tannate conversion, centrifuged at 6500 rpm; for Assay (% Dissolved) 10 mins: supernatant after 10 min mixing; for Assay (% Dissolved) 20 mins: supernatant after 20 min mixing; for Assay (% Dissolved) 30 mins: supernatant after 30 min mixing
Method: The active solution of carbetapentane citrate is prepared by dissolving 24.4 g of carbetapentane citrate into 60 ml of water. 530 ml of purified water is placed in a mixing tank and 53.7 g of MAS is added in small portions while mixing the water to form a dispersion. Once the dispersion is uniform and lump-free, 46.7 g of tannic acid (TA), (three times that of the free base of the active), is folded into the dispersion using a planetary mixer with a sweep blade. […] The salt solution is then added in small portions, while continuing to stir the MAS/tannic acid dispersion using the planetary mixer. After all of the salt solution is added, the weight is made up to 800 g with purified water. Mixing is continued and 5 g samples of the conversion after ten, twenty and thirty minutes of mixing are taken in a centrifuge tube. The samples are subsequently centrifuged at 6500 rpm and the resulting supernatant solution is assayed for the presence of active. At the end of thirty minutes, a 10 g sample of the conversion is taken for assay of the actives.

[2] = cited from earlier work

## CCN(CC)CCOCCOC(=O)C1(c2ccccc2)CCCC1 [Carbetapentane]
[1]
  Assay (% Dissolved) 10 mins: 0.08%
  Assay (% Dissolved) 20 mins: 0.08%
  Assay (% Dissolved) 30 mins: 0.09%

## CN(C)CCC(c1ccc(Cl)cc1)c1ccccn1 (centres unmarked) [Chlorpheniramine]
[1]
  Assay (% Dissolved) 10 mins: 0.12%
  Assay (% Dissolved) 20 mins: 0.13%
  Assay (% Dissolved) 30 mins: 0.14%

## CNC[C@H](O)c1cccc(O)c1.Cl [Phenylephrine HCI]
[2]
  soluble in water: about 100.0%
[1]; in-situ tannate conversion in MAS/tannic acid dispersion
  amount of active ingredient present in solution at the ten, twenty and thirty minute mixing times: more than 47.0%

## CNC[C@H](O)c1cccc(O)c1 [Phenylephrine]
[1]
  Assay (% Dissolved) 10 mins: 37.14%
  Assay (% Dissolved) 20 mins: 47.6%
  Assay (% Dissolved) 30 mins: 47.6%

## COc1ccc(CN(CCN(C)C)c2ccccn2)cc1 [Pyrilamine]
[1]
  Assay (% Dissolved) 10 mins: 0.10%
  Assay (% Dissolved) 20 mins: 0.10%
  Assay (% Dissolved) 30 mins: 0.11%
